Assay results taken from EP1330253B1, “USE OF BIOACTIVE FRACTION FROM COW URINE DISTILLATE ('GO MUTRA') AS A BIO-ENHANCER OF ANTI-INFECTIVE, ANTI-CANCER AGENTS AND NUTRIENTS” (Council of Scientific and Industrial Research, priority 2000, dated 2002).
Read-outs that look alike come from different tables or passages of the source.

Assays:
Escherichia coli = assay: Bio-enhancement of anti-infective agents, broth assay with viable cell count; type: cell-based; conditions: for Fold enhancement in antibiotic activity: cow urine distillate 1 µl/ml
Description: (§1) • a) The minimum inhibitory concentration (MIC) of antibiotic is determined against Escherichia coli (equivalent of ATCC 10536), Bacillus subtilis (equivalent of ATCC 6015) and Mycobacterium smegmatis (equivalent of ATCC 10231) in broth and disc diffusion assay. • b) The antibiotics agents at concentrations 1/4, 1/3, 1/2 and equal to MIC are added alone and in combination with the test compound at varying concentrations on disc and in broth to evaluate the comparative inhibition. • c) These combination showing significant advantage or higher activity than antibiotic alone in terms of enhanced inhibition of bacterial growth (large inhibition zone in disc diffusion and affectivity of lower concentration in broth assay) are picked up for future testing. • d) In broth assay the activity is quantified by counting number of viable cells in a given treatment and converted in fold enhancement by combination compared to antibiotic / drug alone in the killing percentage of cells. • e) The pre-treatment assay followed to determine whether the compound is required along with antibiotic to enhance its activity or even its withdrawal after treatment or prior to antibiotic treatment would benefit. For this, the cells are treated with compound for 4 to 8 hours and then washed free of it by centrifugation and washing in sterile water. This was followed by treatment with antibiotic as in steps b to d.
(§2) In the next step of elucidation of the enhancer action, the applicants experimented with the killing activities of different antibiotics against the bacteria singly and in combination with the test component (cow urine distillate) following the method described above. These experiments are being described in the following examples. […] In all the experiments the cow urine distillate concentration was kept at 1 µl/ml, unless it is specifically mentioned.

Bacillus subtilis = assay: as above; type: cell-based; conditions: for Fold enhancement in antibiotic activity: cow urine distillate 1 µl/ml
Description: as §1, §2

Mycobacterium smegmatis = assay: as above; type: cell-based; conditions: for Fold enhancement in antibiotic activity: cow urine distillate 1 µl/ml
Description: as §1, §2

[1] = Bioenhancement of antifungal agent, minimum inhibitory concentration; type: cell-based; conditions: active fraction Gm-IV kept at 10 µg/ml in the combination
[2] = test system: oxyR mutant of bacterium Escherichia coli; type: cell-based; conditions: for Fold enhancement in isoniazid/H2O2 activity: cow urine distillate 0.001 µl/ml
Description: For this, the cells are treated with compound for 4 to 8 hours and then washed free of it by centrifugation and washing in sterile water. This was followed by treatment with antibiotic as in steps b to d.

[3] = for OD measured as Absorbance (specific to the compound maxima) across the membrane in receiving tube after 1 hr / OD measured as Absorbance (specific to the compound maxima) across the membrane in receiving tube after 2 hr / OD measured as Absorbance (specific to the compound maxima) across the membrane in receiving tube after 3 hr / OD measured as Absorbance (specific to the compound maxima) across the membrane in receiving tube after 4hr / OD measured as Absorbance (specific to the compound maxima) across the membrane in receiving tube after 5 hr / OD measured as Absorbance (specific to the compound maxima) across the membrane in receiving tube after 6 hr: Rifampicin 1mg/ml, fraction Gm-IV 1.0µg/ml
MCF-7 = assay: Bio-enhancement of anti-cancer agents, viable cell count; type: cell-based; conditions: distillate at 1 µl/ml
Description: • a) MCF-7 (Breast cancer commercial cell line obtained from National Center for Cell Sciences (NCCS), Pune) is inoculated at a density of about 0.1 X 10^6 cells in MEM medium in the wells of 24 well plate. • b) This is replaced with fresh medium after 18 hours in each well. • c) The test component (s) is added at desired concentrations in different wells just after the medium replacement. • d) Observations are recorded on the cell count after 36 hours for which the allowing steps are required. • i. The medium is removed from the wells. • ii. The wells are rinsed with 1ml PBS (Phosphate buffer saline). • iii. To each well 500 µl of freshly prepared trypsin (0.1% in PBS) solution is added. • iv. Trypsin solution is removed after 30 seconds and the plate is gently tapped till the cells are released from the plate surface. • v. Fresh 1 ml of MEM growth medium is added and agitated with a pipette to obtain a cell suspension. • vi. 10 µl of cell suspension is taken on the haemocytometer and a cover glass is placed over the counting chamber. • vii. The number of viable cells is counted in 5 big squares and the readings are taken from 5 microscopic fields to determine the average. • viii. The cell count (titer per ml) in the original sample is then calculated as average count X 10^3.

[4] = antibiotic 0.1 µg/ml + cow urine distillate 1 µl/ml
[5] = antibiotic 0.5 µg/ml + cow urine distillate 1 µl/ml
[6] = antibiotic 0.05 µg/ml + cow urine distillate 1 µl/ml

CC1(C)S[C@@H]2[C@H](NC(=O)[C@H](N)c3ccccc3)C(=O)N2[C@H]1C(=O)O [Ampicillin]
Survival fraction of viable cells upon treatment with antibiotic alone (Escherichia coli; antibiotic 4 µg/ml): 1.11
Survival fraction of viable cells upon treatment with amlibiotic + cow urine distillate combination (Escherichia coli; antibiotic 4 µg/ml + cow urine distillate 1 µl/ml): 0.60
Fold enhancement in antibiotic activity (Escherichia coli; antibiotic 4 µg/ml): 1.85
Survival fraction of viable cells upon treatment with antibiotic alone (Escherichia coli; antibiotic 6 µg/ml): 0.09
Survival fraction of viable cells upon treatment with amlibiotic + cow urine distillate combination (Escherichia coli; antibiotic 6 µg/ml + cow urine distillate 1 µl/ml): 0.02
Fold enhancement in antibiotic activity (Escherichia coli; antibiotic 6 µg/ml): 4.50
Survival fraction of viable cells upon treatment with antibiotic alone (Escherichia coli; antibiotic 8 µg/ml): 0.05
Survival fraction of viable cells upon treatment with amlibiotic + cow urine distillate combination (Escherichia coli; antibiotic 8 µg/ml + cow urine distillate 1 µl/ml): 0.01
Fold enhancement in antibiotic activity (Escherichia coli; antibiotic 8 µg/ml): 5.00
Survival fraction of viable cells upon treatment with antibiotic alone (Bacillus subtilis; antibiotic 0.1 µg/ml): 1.00
Survival fraction of viable cells upon treatment with antibiotic + cow urine distillate combination (Bacillus subtilis; [4]): 0.3
Fold enhancement in antibiotic activity (Bacillus subtilis; antibiotic 0.1 µg/ml): 3.3
Survival fraction of viable cells upon treatment with antibiotic alone (Bacillus subtilis; antibiotic 0.5 µg/ml): 0.18
Survival fraction of viable cells upon treatment with antibiotic + cow urine distillate combination (Bacillus subtilis; [5]): 0.06
Fold enhancement in antibiotic activity (Bacillus subtilis; antibiotic 0.5 µg/ml): 3.0
Survival fraction of viable cells upon treatment with antibiotic alone (Mycobacterium smegmatis; antibiotic 0.5 µg/ml): 0.07
Survival fraction of viable cells upon treatment with antibiotic + cow urine distillate combination (Mycobacterium smegmatis; [5]): 0.006
Fold enhancement in antibiotic activity (Mycobacterium smegmatis; antibiotic 0.5 µg/ml): 11.6

Clc1ccccc1C(c1ccccc1)(c1ccccc1)n1ccnc1 [Clotrimazol]
Fold enhancement [1]: 0.0
Minimum inhibitory Concentration (MIC) [1]: 4.40 µg/mL

OO [Hydrogen peroxide (H2O2), Hydrogen peroxide]
Viable cell count ([2]; 0.003 %v/v): 7.14 x10^7
Viable cell count ([2]; 0.003 %v/v + cow urine distillate 0.001 µl/ml): 1.2 x10^7
Fold enhancement in isoniazid/H2O2 activity ([2]; 0.003 %v/v): 5.9

NNC(=O)c1ccncc1 [Isoniazid]
Viable cell count ([2]; 250µg/ml): 7.5 x10^7
Viable cell count ([2]; 250µg/ml + cow urine distillate 0.001 µl/ml): 0.99 x10^7
Fold enhancement in isoniazid/H2O2 activity ([2]; 250µg/ml): 7.5
enhancement action for INH ([2]; distillate at 10-50 thousand-fold dilution in the final volume of culture, organism not stated): showed enhancement action

CO[C@H]1/C=C/O[C@@]2(C)Oc3c(C)c(O)c4c(O)c(c(/C=N/N5CCN(C)CC5)c(O)c4c3C2=O)NC(=O)/C(C)=C\C=C\[C@H](C)[C@H](O)[C@@H](C)[C@@H](O)[C@@H](C)[C@H](OC(C)=O)[C@@H]1C [Rifampicin]
OD measured as Absorbance (specific to the compound maxima) across the membrane in receiving tube after 1 hr ([3]; A340): 0.0097
OD measured as Absorbance (specific to the compound maxima) across the membrane in receiving tube after 2 hr ([3]; A340): 0.0214
OD measured as Absorbance (specific to the compound maxima) across the membrane in receiving tube after 3 hr ([3]; A340): 0.0334
OD measured as Absorbance (specific to the compound maxima) across the membrane in receiving tube after 4hr ([3]; A340): 0.0771
OD measured as Absorbance (specific to the compound maxima) across the membrane in receiving tube after 5 hr ([3]; A340): 0.0858
OD measured as Absorbance (specific to the compound maxima) across the membrane in receiving tube after 6 hr ([3]; A340): 0.0910
OD measured as Absorbance (specific to the compound maxima) across the membrane in receiving tube after 1 hr ([3]; A475): 0.0177
OD measured as Absorbance (specific to the compound maxima) across the membrane in receiving tube after 2 hr ([3]; A475): 0.0284
OD measured as Absorbance (specific to the compound maxima) across the membrane in receiving tube after 3 hr ([3]; A475): 0.0309
OD measured as Absorbance (specific to the compound maxima) across the membrane in receiving tube after 4hr ([3]; A475): 0.0412
OD measured as Absorbance (specific to the compound maxima) across the membrane in receiving tube after 5 hr ([3]; A475): 0.0484
OD measured as Absorbance (specific to the compound maxima) across the membrane in receiving tube after 6 hr ([3]; A475): 0.0496
enhancement of bioavailability across the mammalian gut membrane ([3]; with the sample, goat intestine, within 2 hours, keeps increasing upto 4 hours): enhancement of bioavailability
Survival fraction of viable cells upon treatment with antibiotic alone (Escherichia coli; antibiotic 10 µg/ml): 0.86
Survival fraction of viable cells upon treatment with amlibiotic + cow urine distillate combination (Escherichia coli; antibiotic 10 µg/ml + cow urine distillate 1 µl/ml): 0.17
Fold enhancement in antibiotic activity (Escherichia coli; antibiotic 10 µg/ml): 5.0
Survival fraction of viable cells upon treatment with antibiotic alone (Escherichia coli; antibiotic 30 µg/ml): 0.05
Survival fraction of viable cells upon treatment with amlibiotic + cow urine distillate combination (Escherichia coli; antibiotic 30 µg/ml + cow urine distillate 1 µl/ml): 0.007
Fold enhancement in antibiotic activity (Escherichia coli; antibiotic 30 µg/ml): 7.1
Survival fraction of viable cells upon treatment with antibiotic alone (Bacillus subtilis; antibiotic 0.005 µg/ml): 1.1
Survival fraction of viable cells upon treatment with antibiotic + cow urine distillate combination (Bacillus subtilis; antibiotic 0.005 µg/ml + cow urine distillate 1 µl/ml): 0.28
Fold enhancement in antibiotic activity (Bacillus subtilis; antibiotic 0.005 µg/ml): 5.5
Survival fraction of viable cells upon treatment with antibiotic alone (Bacillus subtilis; antibiotic 0.05 µg/ml): 0.03
Survival fraction of viable cells upon treatment with antibiotic + cow urine distillate combination (Bacillus subtilis; [6]): 0.01
Fold enhancement in antibiotic activity (Bacillus subtilis; antibiotic 0.05 µg/ml): 3.0
Survival fraction of viable cells upon treatment with antibiotic alone (Mycobacterium smegmatis; antibiotic 0.05 µg/ml): 0.008
Survival fraction of viable cells upon treatment with antibiotic + cow urine distillate combination (Mycobacterium smegmatis; [6]): 0.0001
Fold enhancement in antibiotic activity (Mycobacterium smegmatis; antibiotic 0.05 µg/ml): 80
Survival fraction of viable cells upon treatment with antibiotic alone (Mycobacterium smegmatis; antibiotic 0.1 µg/ml): 0.006
Survival fraction of viable cells upon treatment with antibiotic + cow urine distillate combination (Mycobacterium smegmatis; [4]): 0.0036
Fold enhancement in antibiotic activity (Mycobacterium smegmatis; antibiotic 0.1 µg/ml): 1.5

CC(=O)O[C@H]1C(=O)[C@@]2(C)[C@H]([C@H](OC(=O)c3ccccc3)[C@]3(O)C[C@H](OC(=O)[C@H](O)[C@@H](NC(=O)c4ccccc4)c4ccccc4)C(C)=C1C3(C)C)[C@]1(OC(C)=O)CO[C@@H]1C[C@@H]2O [Taxol, Paclitaxel]
enhancement in the activity of taxol (MCF-7): at least 5 folds
